Experimental data reported in patent publication US10034861B2 (priority 2016, dated 2018).
Where two headings read alike, the source gives them in different places.

Key:
Format in all cases: biochemical
PDE1C = PDE1C (Homo sapiens (Human), UniProt Q14123); assay: biochemical
Source text: (§1) Table 1 lists the IC50 value for inhibition of PDE1 by the compounds of the invention. […] PDE1 assays are described in the Experimental Section.

PDE1A = PDE1A (Homo sapiens (Human), UniProt P54750); assay: biochemical
Source text: as §1

PDE1B = PDE1B (Homo sapiens (Human), UniProt Q01064); assay: PDE1 inhibition assay (PDE1B); details: 15 nM tritium labelled cAMP, 1 hr at room temperature, SPA beads
Source text: as §1

[1] = 15 nM tritium labelled cAMP, 1 hr at room temperature, SPA beads

PDE1A, sequence (P54750 whole entry): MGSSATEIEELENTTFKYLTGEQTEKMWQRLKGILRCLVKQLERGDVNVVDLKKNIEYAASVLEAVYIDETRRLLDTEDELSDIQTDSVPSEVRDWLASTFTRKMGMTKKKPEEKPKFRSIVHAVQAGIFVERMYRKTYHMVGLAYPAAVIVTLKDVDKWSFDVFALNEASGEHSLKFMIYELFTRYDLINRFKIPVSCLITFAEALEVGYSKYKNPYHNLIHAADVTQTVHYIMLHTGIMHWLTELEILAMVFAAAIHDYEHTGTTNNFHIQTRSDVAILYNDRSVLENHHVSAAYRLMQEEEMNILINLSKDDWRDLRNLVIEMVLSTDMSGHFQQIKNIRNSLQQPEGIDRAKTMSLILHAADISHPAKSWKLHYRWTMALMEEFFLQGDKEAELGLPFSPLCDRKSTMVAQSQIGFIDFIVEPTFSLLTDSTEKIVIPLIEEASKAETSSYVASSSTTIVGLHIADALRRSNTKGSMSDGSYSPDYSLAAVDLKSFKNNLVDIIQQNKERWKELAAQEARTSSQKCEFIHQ
PDE1C, sequence (Q14123 whole entry): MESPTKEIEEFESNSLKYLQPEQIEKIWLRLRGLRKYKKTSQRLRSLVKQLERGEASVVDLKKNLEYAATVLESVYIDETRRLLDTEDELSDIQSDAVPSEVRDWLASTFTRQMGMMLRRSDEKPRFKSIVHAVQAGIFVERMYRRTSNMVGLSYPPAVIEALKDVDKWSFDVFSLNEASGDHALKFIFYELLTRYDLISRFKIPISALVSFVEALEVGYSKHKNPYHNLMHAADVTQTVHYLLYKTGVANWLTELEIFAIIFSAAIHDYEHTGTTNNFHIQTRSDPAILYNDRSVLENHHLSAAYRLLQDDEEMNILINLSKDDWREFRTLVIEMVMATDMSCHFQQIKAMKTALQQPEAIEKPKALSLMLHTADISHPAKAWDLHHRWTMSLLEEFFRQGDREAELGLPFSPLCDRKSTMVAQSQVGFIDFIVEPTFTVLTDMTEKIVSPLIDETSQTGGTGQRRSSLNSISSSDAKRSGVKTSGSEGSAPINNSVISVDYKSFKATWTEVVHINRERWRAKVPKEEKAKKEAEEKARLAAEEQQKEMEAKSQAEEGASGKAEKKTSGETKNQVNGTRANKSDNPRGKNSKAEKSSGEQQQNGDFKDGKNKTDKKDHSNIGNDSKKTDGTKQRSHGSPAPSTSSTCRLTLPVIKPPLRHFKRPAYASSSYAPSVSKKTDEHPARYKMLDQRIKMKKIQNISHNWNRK
PDE1B, sequence (Q01064 whole entry): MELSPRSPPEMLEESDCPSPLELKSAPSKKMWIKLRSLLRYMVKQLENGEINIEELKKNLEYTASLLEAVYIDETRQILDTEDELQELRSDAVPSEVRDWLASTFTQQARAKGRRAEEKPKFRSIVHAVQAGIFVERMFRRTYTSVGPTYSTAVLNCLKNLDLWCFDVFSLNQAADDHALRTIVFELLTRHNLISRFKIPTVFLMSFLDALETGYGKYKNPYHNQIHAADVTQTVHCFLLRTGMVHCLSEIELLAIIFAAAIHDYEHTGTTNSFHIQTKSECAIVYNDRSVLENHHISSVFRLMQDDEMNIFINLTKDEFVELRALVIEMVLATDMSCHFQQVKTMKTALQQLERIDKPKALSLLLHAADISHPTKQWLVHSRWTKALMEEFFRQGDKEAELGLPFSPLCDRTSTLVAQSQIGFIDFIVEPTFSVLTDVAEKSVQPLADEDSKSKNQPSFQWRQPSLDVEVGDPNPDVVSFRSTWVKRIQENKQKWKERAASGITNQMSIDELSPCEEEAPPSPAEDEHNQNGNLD

For `[2H]C([2H])([2H])C([2H])([2H])Oc1ncccc1-c1cc(NCc2cccnc2OC)c2c(n1)c(C)nn2C(C)C` [Example 181, 5-(2-(ethoxy-d5)pyridin-3-yl)-1-isopropyl-N-((2-methoxypyridin-3-yl)methyl)-3-methyl-1H-pyrazolo[4,3-b]pyridin-7-amine], the IC50 (PDE1C) was 84 nM, the IC50 (PDE1A) was 31 nM and the IC50 (PDE1B; PDE1B, IC50 (nM)) was 1.6 nM.
Work on `CCOc1ncccc1-c1cc(NCc2cc(OC)ncn2)c2c(n1)c(C)nn2C(C)C` [Example 179, 5-(2-ethoxy-3-pyridyl)-1-isopropyl-N-[(6-methoxypyrimidin-4-yl)methyl]-3-methyl-pyrazolo[4,3-b]pyridin-7-amine] yielded an IC50 (PDE1C; [1]) of 7 nM, an IC50 (PDE1A; [1]) of 2.8 nM and an IC50 (PDE1B; read-out: PDE1B, IC50) of 0.51 nM.
In the case of `Cc1nn(C(C)C)c2c(NCc3cnn(C)c3)cc(-c3nncn3C)nc12` [Example 203, 1-isopropyl-3-methyl-N-[(1-methylpyrazol-4-yl)methyl]-5-(4-methyl-1,2,4-triazol-3-yl)pyrazolo[4,3-b]pyridin-7-amine], the IC50 (PDE1C; [1]) is reported as 420 nM, the IC50 (PDE1A; [1]) is reported as 410 nM and the IC50 (PDE1B; read-out: PDE1B, IC50) is reported as 180 nM.
In the case of `CCOc1ncccc1-c1cc(NCc2n[nH]c(C)n2)c2c(n1)c(C)nn2C(C)C` [Example 55, 5-(2-ethoxy-3-pyridyl)-1-isopropyl-3-methyl-N-[(5-methyl-1H-1,2,4-triazol-3-yl)methyl]pyrazolo[4,3-b]pyridin-7-amine], the IC50 (PDE1C; [1]) is reported as 5.5 nM, the IC50 (PDE1A; [1]) is reported as 3.4 nM and the IC50 (PDE1B; read-out: PDE1B, IC50) is reported as 0.51 nM.
`Cc1nn(C(C)C)c2c(NCc3cnn(C)c3)cc(N3CCOC3=O)nc12` [Example 151, 3-[1-isopropyl-3-methyl-7-[(1-methylpyrazol-4-yl)methylamino]pyrazolo[4,3-b]pyridin-5-yl]oxazolidin-2-one] showed an IC50 (PDE1C; [1]) of 12 nM, an IC50 (PDE1A; [1]) of 10 nM and an IC50 (PDE1B; read-out: PDE1B, IC50) of 4.7 nM.
In the case of `CCOc1ncccc1-c1cc(NCc2ncc(C)o2)c2c(n1)c(C)nn2C(C)C` [Example 38, 5-(2-ethoxy-3-pyridyl)-1-isopropyl-3-methyl-N-[(5-methyloxazol-2-yl)methyl]pyrazolo[4,3-b]pyridin-7-amine], the IC50 (PDE1C; [1]) is reported as 13 nM, the IC50 (PDE1A; [1]) is reported as 1.1 nM and the IC50 (PDE1B; read-out: PDE1B, IC50) is reported as 0.24 nM.
`CCOc1ncccc1-c1cc(NCc2cnc(OC)cn2)c2c(n1)c(C)nn2C(C)C` [Example 114, 5-(2-ethoxy-3-pyridyl)-1-isopropyl-N-[(5-methoxypyrazin-2-yl)methyl]-3-methyl-pyrazolo[4,3-b]pyridin-7-amine] showed an IC50 (PDE1C; [1]) of 46 nM, an IC50 (PDE1A; [1]) of 24 nM and an IC50 (PDE1B; read-out: PDE1B, IC50) of 3 nM.
With `CCCOc1ncccc1-c1cc(NCc2ncn(C)n2)c2c(n1)c(C)nn2C(C)C` [Example 145, 1-isopropyl-3-methyl-N-[(1-methyl-1,2,4-triazol-3-yl)methyl]-5-(2-propoxy-3-pyridyl)pyrazolo[4,3-b]pyridin-7-amine] the IC50 (PDE1C; [1]) was 1.2 nM, the IC50 (PDE1A; [1]) was 0.41 nM and the IC50 (PDE1B; read-out: PDE1B, IC50) was 0.095 nM.
In the case of `CCOc1ncccc1-c1cc(NCc2scnc2C)c2c(cnn2C(C)C)n1` [Example 71, 5-(2-ethoxy-3-pyridyl)-1-isopropyl-N-[(4-methylthiazol-5-yl)methyl]pyrazolo[4,3-b]pyridin-7-amine], the IC50 (PDE1C) is reported as 180 nM, the IC50 (PDE1A) is reported as 170 nM and the IC50 (PDE1B; PDE1B, IC50 (nM)) is reported as 18 nM.
In the case of `CCOc1ncccc1-c1cc(NCc2cc[nH]n2)c2c(n1)c(C)nn2C(C)C` [Example 39, 5-(2-ethoxy-3-pyridyl)-1-isopropyl-3-methyl-N-(1H-pyrazol-3-ylmethyl)pyrazolo[4,3-b]pyridin-7-amine], the IC50 (PDE1C; [1]) is reported as 13 nM, the IC50 (PDE1A; [1]) is reported as 8.1 nM and the IC50 (PDE1B; read-out: PDE1B, IC50) is reported as 0.43 nM.
In the case of `CCOc1ncccc1-c1cc(NCc2cccnc2)c2c(n1)c(C)nn2C(C)C` [Example 115, 5-(2-ethoxy-3-pyridyl)-1-isopropyl-3-methyl-N-(3-pyridylmethyl)pyrazolo[4,3-b]pyridin-7-amine], the IC50 (PDE1C; [1]) is reported as 31 nM, the IC50 (PDE1A; [1]) is reported as 15 nM and the IC50 (PDE1B; read-out: PDE1B, IC50) is reported as 2 nM.
`Cc1nn(C(C)C)c2c(NCc3cnn(C)c3)cc(-c3ncnn3C)nc12` [Example 195, 1-isopropyl-3-methyl-5-(1-methyl-1H-1,2,4-triazol-5-yl)-N-((1-methyl-1H-pyrazol-4-yl)methyl)-1H-pyrazolo[4,3-b]pyridin-7-amine] was tested, and the IC50 (PDE1C; [1]) was 160 nM, the IC50 (PDE1A; [1]) was 420 nM and the IC50 (PDE1B; read-out: PDE1B, IC50) was 110 nM.
`COc1ncccc1CNc1cc(-c2ccnn2C)nc2c(C)nn(C(C)C)c12` [Example 175, 1-isopropyl-N-((2-methoxypyridin-3-yl)methyl)-3-methyl-5-(1-methyl-1H-pyrazol-5-yl)-1H-pyrazolo[4,3-b]pyridin-7-amine] showed an IC50 (PDE1C; [1]) of 130 nM, an IC50 (PDE1A; [1]) of 83 nM and an IC50 (PDE1B; read-out: PDE1B, IC50) of 17 nM.
`CCOc1ncccc1-c1cc(NCc2ccn(C)c(=O)c2)c2c(n1)c(C)nn2C(C)C` [Example 78, 4-[[[5-(2-ethoxy-3-pyridyl)-1-isopropyl-3-methyl-pyrazolo[4,3-b]pyridin-7-yl]amino]methyl]-1-methyl-pyridin-2-one] was tested, and the IC50 (PDE1C; [1]) was 44 nM, the IC50 (PDE1A; [1]) was 27 nM and the IC50 (PDE1B; read-out: PDE1B, IC50) was 3.2 nM.
Work on `CCOc1ncccc1-c1cc(NCc2c[nH]cn2)c2c(n1)c(C)nn2C(C)CC` (single isomer, unassigned) [Example 130, 5-(2-ethoxy-3-pyridyl)-N-(1H-imidazol-4-ylmethyl)-3-methyl-1-[1-methylpropyl]pyrazolo[4,3-b]pyridin-7-amine] yielded an IC50 (PDE1C; [1]) of 25 nM, an IC50 (PDE1A; [1]) of 11 nM and an IC50 (PDE1B; PDE1B, IC50 (nM)) of 0.86 nM.
In the case of `CCOc1ncccc1-c1cc(NCc2cnn(C)c2)c2c(cnn2C)n1` [Example 16, 5-(2-ethoxypyridin-3-yl)-1-methyl-N-((1-methyl-1H-pyrazol-4-yl)methyl)-1H-pyrazolo[4,3-b]pyridin-7-amine], the IC50 (PDE1C; [1]) is reported as 1800 nM, the IC50 (PDE1A; [1]) is reported as 670 nM and the IC50 (PDE1B; read-out: PDE1B, IC50) is reported as 92 nM.
`CCOc1ncccc1-c1cc(NCc2ccnc(C)c2)c2c(n1)c(C)nn2C(C)C` [Example 103, 5-(2-ethoxy-3-pyridyl)-1-isopropyl-3-methyl-N-[(2-methyl-4-pyridyl)methyl]pyrazolo[4,3-b]pyridin-7-amine] gave an IC50 (PDE1C; [1]) of 17 nM, an IC50 (PDE1A; [1]) of 5.4 nM and an IC50 (PDE1B; read-out: PDE1B, IC50) of 2.9 nM.
Work on `CCOc1ncccc1-c1cc(NCc2cccnc2F)c2c(n1)c(C)nn2C(C)C` [Example 85, 5-(2-ethoxy-3-pyridyl)-N-[(2-fluoro-3-pyridyl)methyl]-1-isopropyl-3-methyl-pyrazolo[4,3-b]pyridin-7-amine] yielded an IC50 (PDE1C; [1]) of 27 nM, an IC50 (PDE1A; [1]) of 8.4 nM and an IC50 (PDE1B; read-out: PDE1B, IC50) of 0.22 nM.
`CCOc1ncccc1-c1cc(NCc2cccnc2C(F)F)c2c(n1)c(C)nn2C(C)C` [Example 178, N-[[2-(difluoromethyl)-3-pyridyl]methyl]-5-(2-ethoxy-3-pyridyl)-1-isopropyl-3-methyl-pyrazolo[4,3-b]pyridin-7-amine] showed an IC50 (PDE1C; [1]) of 63 nM, an IC50 (PDE1A; [1]) of 31 nM and an IC50 (PDE1B; read-out: PDE1B, IC50) of 3.2 nM.
For `CCOc1ncccc1-c1cc(NCc2cn(C)cn2)c2c(n1)c(C)nn2C(C)C` [Example 58, 5-(2-ethoxypyridin-3-yl)-1-isopropyl-3-methyl-N-((1-methyl-1H-imidazol-4-yl)methyl)-1H-pyrazolo[4,3-b]pyridin-7-amine 2,2,2-trifluoroacetate], the IC50 (PDE1C; [1]) was 2.1 nM, the IC50 (PDE1A; [1]) was 1.1 nM and the IC50 (PDE1B; read-out: PDE1B, IC50) was 0.17 nM.
`CCOc1ncccc1-c1cc(NCc2ncn(C)n2)c2c(cnn2C(C)CC)n1` (single isomer, unassigned) [Example 141, 5-(2-ethoxy-3-pyridyl)-1-[1-methylpropyl]-N-[(1-methyl-1,2,4-triazol-3-yl)methyl]pyrazolo[4,3-b]pyridin-7-amine] was tested, and the IC50 (PDE1C) was 76 nM, the IC50 (PDE1A; [1]) was 44 nM and the IC50 (PDE1B; PDE1B, IC50 (nM)) was 2.2 nM.
`CCOc1ncccc1-c1cc(NCc2cc(C)cs2)c2c(n1)c(C)nn2C(C)C` [Example 35, 5-(2-ethoxy-3-pyridyl)-1-isopropyl-3-methyl-N-[(4-methyl-2-thienyl)methyl]pyrazolo[4,3-b]pyridin-7-amine] showed an IC50 (PDE1C; [1]) of 32 nM, an IC50 (PDE1A; [1]) of 7.3 nM and an IC50 (PDE1B; read-out: PDE1B, IC50) of 1.7 nM.
`CCOc1ncccc1-c1cc(NCc2cccc(C(F)(F)F)n2)c2c(n1)c(C)nn2C(C)C` [Example 107, 5-(2-ethoxy-3-pyridyl)-1-isopropyl-3-methyl-N-[[6-(trifluoromethyl)-2-pyridyl]methyl]pyrazolo[4,3-b]pyridin-7-amine] gave an IC50 (PDE1C; [1]) of 170 nM, an IC50 (PDE1A; [1]) of 110 nM and an IC50 (PDE1B; read-out: PDE1B, IC50) of 5.6 nM.
`Cc1nn(C(C)C)c2c(NCc3ncn(C)n3)cc(-c3ccc[nH]c3=O)nc12` [Example 186, 3-[1-isopropyl-3-methyl-7-[(1-methyl-1,2,4-triazol-3-yl)methylamino]pyrazolo[4,3-b]pyridin-5-yl]-1H-pyridin-2-one] showed an IC50 (PDE1C; [1]) of 130 nM, an IC50 (PDE1A; [1]) of 64 nM and an IC50 (PDE1B; read-out: PDE1B, IC50) of 15 nM.
`Cc1cnc(-c2cc(NCc3cnn(C)c3)c3c(n2)c(C)nn3C(C)C)s1` [Example 148, 1-isopropyl-3-methyl-N-[(1-methylpyrazol-4-yl)methyl]-5-(5-methylthiazol-2-yl)pyrazolo[4,3-b]pyridin-7-amine] showed an IC50 (PDE1C; [1]) of 86 nM, an IC50 (PDE1A; [1]) of 110 nM and an IC50 (PDE1B; read-out: PDE1B, IC50) of 58 nM.
`Cc1nn(C(C)C)c2c(NCc3cnn(C)c3)cc(-c3cnn(C)c3C)nc12` [Example 66, 5-(1,5-dimethylpyrazol-4-yl)-1-isopropyl-3-methyl-N-[(1-methylpyrazol-4-yl)methyl]pyrazolo[4,3-b]pyridin-7-amine] gave an IC50 (PDE1C; [1]) of 220 nM, an IC50 (PDE1A; [1]) of 210 nM and an IC50 (PDE1B; read-out: PDE1B, IC50) of 59 nM.
`CCOc1ncccc1-c1cc(NCc2nnc(C)s2)c2c(n1)c(C)nn2C(C)C` [Example 33, 5-(2-ethoxy-3-pyridyl)-1-isopropyl-3-methyl-N-[(5-methyl-1,3,4-thiadiazol-2-yl)methyl]pyrazolo[4,3-b]pyridin-7-amine] gave an IC50 (PDE1C; [1]) of 7.9 nM, an IC50 (PDE1A; [1]) of 1.6 nM and an IC50 (PDE1B; read-out: PDE1B, IC50) of 0.41 nM.
With `CCOc1ncccc1-c1cc(NCc2nc[nH]n2)c2c(n1)c(C)nn2C(C)CC` (single isomer, unassigned) [Example 144, 5-(2-ethoxy-3-pyridyl)-3-methyl-1-[1-methylpropyl]-N-(1H-1,2,4-triazol-3-ylmethyl)pyrazolo[4,3-b]pyridin-7-amine] the IC50 (PDE1C; [1]) was 23 nM, the IC50 (PDE1A; [1]) was 14 nM and the IC50 (PDE1B; PDE1B, IC50 (nM)) was 1.1 nM.
